Laboratory results reported in patent US10457707B2, “Substituted urea depsipeptide analogs as activators of the CLPP endopeptidase” (priority 2015, dated 2019).
Values after ≈ are worked out from the molar mass of the structure shown. Read-outs that look alike come from different tables or passages of the source. *1 amine or outer side, *2 acyl side, *3 side chain or, on linkers, in order; H or OH if unused. Where a SMILES comes first, the peptide text is derived from it. Bridges are numbered along the chain shown (N, C = ends). [ ]: non-standard residue; d: D form. The star is where a group is joined. ξ: configuration not given here. Phe(3,5-F2) = N[C@@H](Cc1cc(F)cc(F)c1)C(=O)O; NH(4-OCF3-phenyl) = FC(F)(F)Oc1ccc(N*)cc1; Morpholine(3S-CO) = O=C(O)[C@@H]1COCCN1; Pro(4S-Me) = C[C@@H]1CN[C@H](C(=O)O)C1; Pro(4R-Me) = C[C@H]1CN[C@H](C(=O)O)C1; NH(3,4-Me2-phenyl) = Cc1ccc(N*)cc1C; ξPro(4R-OH) = O=C(O)C1C[C@@H](O)CN1; ξPro(4R-Me) = C[C@H]1CNC(C(=O)O)C1; Hyp = O=C(O)[C@@H]1C[C@@H](O)CN1; NH(4-Et-phenyl) = CCc1ccc(N*)cc1; NMeT = CN[C@H](C(=O)O)[C@@H](C)O; NH(4-Me-phenyl) = Cc1ccc(N*)cc1; aThr = C[C@H](O)[C@H](N)C(=O)O; Pip = O=C(O)[C@@H]1CCCCN1; NMeA = CN[C@@H](C)C(=O)O; CO = O=C([*:1])[*:2]

Tests used:
Assay type in all cases: cell-based
[1] = Cytotoxicity assay (CellTiter-Glo cell viability, 72 hours); conditions: African green monkey
Procedure, shortened: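 Vero cells, 5000/well, grown overnight at 37° C, 5% CO2 in DMEM with 10% FBS, then exposed to serial compound dilutions or DMSO for 72 hours. Viability read by CellTiter-Glo luminescence. IC50 from duplicate wells, reported as range over two independent experiments.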

[2] = test system: Staphylococcus aureus, USA 300 wherein ClpP is inactivated; assay: Minimal inhibitory concentration assay
Procedure, shortened: (§1)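 Antibacterial activity was measured by CLSI-standard microdilution in broth, using overnight aerobic incubation at 37 °C. Growth inhibition was scored visually, and MIC taken as the lowest concentration preventing growth.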

[3] = test system: Staphylococcus aureus, USA 300; assay: Minimal inhibitory concentration assay; conditions: USA300, read-out: Minimal Inhibitory Concentrations S. aureus USA 300
Procedure, shortened: as §1

[4] = Vero cells, 72 hours, growth inhibition, read-out: Cytotoxicity IC50

Structure (SMILES)	IC50 at 72 h [1, 4] [µM]	Minimal Inhibitory Concentrations S. aureus USA 300 ΔClpP [2] [µM]	MIC [3] [µM]	IC50 at 72 h [1] [µM]
Cc1ccc(NC(=O)N[C@@H](Cc2cc(F)cc(F)c2)C(=O)N[C@H]2COC(=O)[C@@H]3C[C@@H](C)CN3C(=O)[C@H](C)NC(=O)C3CCCCN3C(=O)[C@@H]3C[C@@H](O)CN3C2=O)cc1 (stereo partly drawn) [Compound 323, (S)-3-(3,5-difluorophenyl)-N-((2R,6S,8aR,14aS,16R,20S,23aS)-16-hydroxy-2,6-dimethyl-5,8,14,19,23-pentaoxooctadecahydro-1H,5H,14H,19H-pyrido[2,1-i]dipyrrolo[2,1-c:2′,1′-l][1]oxa[4,7,10,13]tetraazacyclohexadecin-20-yl)-2-(3-(p-tolyl)ureido)propanamide]	> 100	>20	1.25 (≈ 1.01 µg/mL)	
Cc1ccc(NC(=O)N[C@@H](Cc2cc(F)cc(F)c2)C(=O)N[C@@H]2C(=O)N3C[C@H](O)CC3C(=O)N(C)[C@@H](C)C(=O)N[C@@H](C)C(=O)N3C[C@H](C)CC3C(=O)O[C@H]2C)cc1 (stereo partly drawn) [Compound 31, (S)-3-(3,5-difluorophenyl)-N-((2S,6S,9S,11aS,13R,17S,18S,20aS)-13-hydroxy-2,6,9,10,18-pentamethyl-5,8,11,16,20-pentaoxohexadecahydro-1H,5H,16H-dipyrrolo[2,1-c:2′,1′-l][1]oxa[4,7,10,13]tetraazacyclohexadecin-17-yl)-2-(3-(p-tolyl)ureido)propanamide] ({NH(4-Me-phenyl)-CO}-[Phe(3,5-F2)][aThr][ξPro(4R-OH)][NMeA]A[ξPro(4R-Me)]; ester 2-C)	> 100	>200	1.56 (≈ 1.24 µg/mL)	
C[C@@H]1C[C@H]2C(=O)OC[C@H](NC(=O)[C@H](Cc3cc(F)cc(F)c3)NC(=O)Nc3ccc4c(c3)OCO4)C(=O)N3CCC[C@H]3C(=O)N3CCCC[C@H]3C(=O)N[C@@H](C)C(=O)N2C1 [Compound 195, (S)-2-(3-(benzo[d][1,3]dioxol-5-yl)ureido)-3-(3,5-difluorophenyl)-N-((2R,6S,8aS,14aS,20S,23aS)-2,6-dimethyl-5,8,14,19,23-pentaoxooctadecahydro-1H,5H,14H,19H-pyrido[2,1-i]dipyrrolo[2,1-c:2′,1′-l][1]oxa[4,7,10,13]tetraazacyclohexadecin-20-yl)propanamide]				84.1 ± 8.3
C[C@H]1C[C@H]2C(=O)O[C@@H](C)[C@H](NC(=O)[C@H](Cc3cc(F)cc(F)c3)NC(=O)Nc3ccc(OC(F)(F)F)cc3)C(=O)N3CCC[C@H]3C(=O)N(C)[C@@H]([C@@H](C)O)C(=O)N[C@@H](C)C(=O)N2C1 [Compound 36, (S)-3-(3,5-difluorophenyl)-N-((2S,6S,9S,11aS,17S,18S,20aS)-9-((R)-1-hydroxyethyl)-2,6,10,18-tetramethyl-5,8,11,16,20-pentaoxohexadecahydro-1H,5H,16H-dipyrrolo[2,1-c:2′,1′-l][1]oxa[4,7,10,13]tetraazacyclohexadecin-17-yl)-2-(3-(4-(trifluoromethoxy)phenyl)ureido)propanamide] ({NH(4-OCF3-phenyl)-CO}-[Phe(3,5-F2)][aThr]P[NMeT]A[Pro(4S-Me)]; ester 2-C)		50	0.1 (≈ 0.0882 µg/mL)	25.4 ± 1.8
Cc1ccc(NC(=O)N[C@@H](Cc2cc(F)cc(F)c2)C(=O)N[C@@H]2C(=O)N3CCC[C@H]3C(=O)N3CCCC[C@H]3C(=O)N[C@@H](C)C(=O)N3C[C@H](C)C[C@H]3C(=O)O[C@H]2C)cc1 [Compound 209, (S)-3-(3,5-difluorophenyl)-2-(3-(p-tolyl)ureido)-N-((2R,6S,8aS,14aS,20S,21S,23aS)-2,6,21-trimethyl-5,8,14,19,23-pentaoxooctadecahydro-1H,5H,14H,19H-pyrido[2,1-i]dipyrrolo[2,1-c:2′,1′-l][1]oxa[4,7,10,13]tetraazacyclohexadecin-20-yl)propanamide] ({NH(4-Me-phenyl)-CO}-[Phe(3,5-F2)][aThr]P[Pip]A[Pro(4R-Me)]; ester 2-C)	40 ± 4.1	100	0.05 (≈ 0.0404 µg/mL)	
C[C@@H]1C[C@H]2C(=O)OC[C@H](NC(=O)[C@H](Cc3ccccc3)NC(=O)Nc3ccc4c(c3)OCO4)C(=O)N3CCC[C@H]3C(=O)N3CCCC[C@H]3C(=O)N[C@@H](C)C(=O)N2C1 [Compound 194, (S)-2-(3-(benzo[d][1,3]dioxol-5-yl)ureido)-N-((2R,6S,8aS,14aS,20S,23aS)-2,6-dimethyl-5,8,14,19,23-pentaoxooctadecahydro-1H,5H,14H,19H-pyrido[2,1-i]dipyrrolo[2,1-c:2′,1′-l][1]oxa[4,7,10,13]tetraazacyclohexadecin-20-yl)-3-phenylpropanamide]				> 100
Cc1ccc(NC(=O)N[C@@H](Cc2cc(F)cc(F)c2)C(=O)N[C@@H]2C(=O)N3C[C@H](O)C[C@H]3C(=O)N3CCOC[C@H]3C(=O)N[C@@H](C)C(=O)N3C[C@H](C)C[C@H]3C(=O)O[C@H]2C)cc1C [Compound 215, (S)-3-(3,5-difluorophenyl)-2-(3-(3,4-dimethylphenyl)ureido)-N-((6aS,8R,12S,13S,15aS,17R,21S,23aS)-8-hydroxy-13,17,21-trimethyl-6,11,15,20,23-pentaoxooctadecahydro-6H,11H,15H-[1,4]oxazino[3,4-i]dipyrrolo[2,1-c:2′,1′-l][1]oxa[4,7,10,13]tetraazacyclohexadecin-12-yl)propanamide] ({NH(3,4-Me2-phenyl)-CO}-[Phe(3,5-F2)][aThr][Hyp][Morpholine(3S-CO)]A[Pro(4R-Me)]; ester 2-C)			0.8 (≈ 0.672 µg/mL)	
CCc1ccc(NC(=O)N[C@@H](Cc2cc(F)cc(F)c2)C(=O)N[C@@H]2C(=O)N3C[C@H](O)C[C@H]3C(=O)N3CCCC[C@H]3C(=O)N[C@@H](C)C(=O)N3C[C@H](C)C[C@H]3C(=O)O[C@H]2C)cc1 [Compound 211, (S)-3-(3,5-difluorophenyl)-2-(3-(4-ethylphenyl)ureido)-N-((2R,6S,8aS,14aS,16R,20S,21S,23aS)-16-hydroxy-2,6,21-trimethyl-5,8,14,19,23-pentaoxooctadecahydro-1H,5H,14H,19H-pyrido[2,1-i]dipyrrolo[2,1-c:2′,1′-l][1]oxa[4,7,10,13]tetraazacyclohexadecin-20-yl)propanamide] ({NH(4-Et-phenyl)-CO}-[Phe(3,5-F2)][aThr][Hyp][Pip]A[Pro(4R-Me)]; ester 2-C)		>200	0.04 (≈ 0.0335 µg/mL)	
Cc1ccc(NC(=O)N[C@@H](Cc2cc(F)cc(F)c2)C(=O)N[C@@H]2C(=O)N3C[C@H](O)C[C@H]3C(=O)N3CCCC[C@H]3C(=O)N[C@@H](C)C(=O)N3C[C@H](C)C[C@H]3C(=O)O[C@H]2C)cc1C [Compound 212, (S)-3-(3,5-difluorophenyl)-2-(3-(3,4-dimethylphenyl)ureido)-N-((2R,6S,8aS,14aS,16R,20S,21S,23aS)-16-hydroxy-2,6,21-trimethyl-5,8,14,19,23-pentaoxooctadecahydro-1H,5H,14H,19H-pyrido[2,1-i]dipyrrolo[2,1-c:2′,1′-l][1]oxa[4,7,10,13]tetraazacyclohexadecin-20-yl)propanamide] ({NH(3,4-Me2-phenyl)-CO}-[Phe(3,5-F2)][aThr][Hyp][Pip]A[Pro(4R-Me)]; ester 2-C)		>200	0.1 (≈ 0.0838 µg/mL)	
